Entries after “also recorded” stand apart in the source; their conditions may differ.
Tests used:
[1] = tested on: GL261 murine glioma cells; test: GL261 cell growth assay (MTT salt); assay type: cell-based; settings: 5 μM GlaB, in vitro, starting from 48 h of treatment, N=3, p<0.001
Experimental: The GL261 murine glioma cells (Leibniz-Institute DMSZ, ACC802) are grown in an incubator at 37° C. and 5% CO2 in a culture medium containing D-MEM (GIBCO), 20% fetal bovine serum (GIBCO), antibiotics (100 IU/ml penicillin G, 100 μg/ml streptomycin, 2.5 μg/ml amphotericin B), 2 mM glutamine and 1 mM pyruvate sodium.
GL261 murine glioma cells were seeded in culture medium in 96-well plates (5000 cells/well). After 4 h they were treated with 5 μM GlaB (C. Ingallina, P. M. Costa, F. Ghirga, R. Klippstein, J. T. Wang, S. Berardozzi, N. Hodgins, P. Infante, S. M. Pollard, B. Botta, K. T. Al-Jamal. Polymeric glabrescione B nanocapsules for passive targeting of Hedgehog-dependent tumor therapy in vitro. Nanomedicine, (2017), 12(7), 711-728. DOI: 10.2217/nnm-2016-0388) or the vehicle in which it is dissolved (DMSO) and every 24 h for three days their growth was evaluated using the dehydrogenation method of MTT salt (3-(4,5-dimetiltiazol-2-yl)-2,5-diphenyltetrazolium bromide, Sigma-Aldrich). The MTT salt was added to each well containing culture medium at the concentration of 0.5 mg/ml, and after 2 h of incubation at 37° C., cell growth was measured by measuring the spectrophotometer, at a wavelength of 570 nm, the absorbance values related to the amount of MTT salt transformed into formazan (insoluble violet-colored salt) simultaneously by live control cells and cells treated with GlaB.

[2] = GlaB brain level concentration by HPLC-ESI-MS after intranasal administration; assay type: in vivo, mice
Experimental: For HPLC analysis, mice were treated as above and sacrificed two hours post one single nasal administration; brains were collected and frozen (−80° C.) until use.
HPLC analyses were performed on brain samples from mice treated with GlaB/PEG-Cholane. The brain sample (500 mg), previously stored at −80° C. for 24 hours, was homogenized with 1 mL of a Phosphate Buffered Saline solution, PBS, using an ultrasound probe. A solution of ZnSO4 (0.1 M in H2O, 1 mL) and acetonitrile (1 mL) were added to the mixture, which was further homogenized with ultrasound for 15 minutes. Subsequently, the brain homogenate was stirred for 1 hour at room temperature and was then centrifuged at 3000 g for 5 min at T=4° C. The supernatant was collected. The following procedure to obtain a brain extract was repeated twice. Acetonitrile (1 mL) was added to the brain residue, stirred for 30 minutes at room temperature, then centrifuged at 3000 g for 5 min at T=4° C. and the supernatant collected. Brain extracts samples were centrifuged for five minutes at 5000 rpm and 20 μL of supernatant injected into the HPLC without further treatments.
The HPLC chromatographic system used was an UltiMate 3000 RS system (Thermo Fisher Dionex Sunnyvale, Calif.), equipped with an UltiMate 3000 LPG-3400RS Low Pressure Mixing Biocompatible Gradient Pump, an in-line split-loop well plate sampler, a thermostated column ventilated compartment (temperature range: 5-110° C.) and a diode array detector (UltiMate 3000 DAD-3000RS Rapid Separation Diode Array Detector, up to 200 Hz acquisition rate) with a low dispersion 13 μL flow cell. […]
Calibration standards ranged from 0.128 to 8.2 μg/mL for UV curve (y=0.2574x−0.2042, R2=0.9997) with a Limit of Quantitation, LOQ, (defined for a signal-to-noise ratio >10) of 4.1 ng on column, whereas calibration curve ranged 0.128-8.2 μg/ml for MS (y=11176x−1505.9) showing a correlation coefficient (r^2) equal to 0.9991.
A known amount (0.5 μg/mL) of the GlaB analyte (a spike) was added to treated brain sample. The samples and the samples plus spike were then analyzed. […]

[3] = tested on: murine glioma GL261 cells; test: Orthotopic GL261 glioma in mice, tumor volume (procedure A); assay type: in vivo, mice (C57BL/6); settings: for tumor volume: every two days, N=7, vehicle ethanol:2-hydroxypropyl-beta-cyclodextrin 1:5
Experimental: Male wild type (C57BL/6) mice were inoculated with murine glioma cells (GL261, Leibniz-Institute DMSZ, ACC802) at the age of 8 weeks (animals weighing an average weight of 22 g). After being anesthetized by intraperitoneal injection of 50 mg/kg Zoletil anaesthetic (combination of tiletamine hypochloride and zolazepam hypochloride) associated with 10 mg/kg Rompun (xylazine), the animals were subjected to orthotopic injection (subcortical/striatum, […] anteroposterior, −2 mm lateral to the bregma) of GL261 cells (1×10^5 cells per mouse) using a stereotaxic apparatus to accurately and reproducibly reach the right striatal region. The cells, resuspended in 5 μl of phosphate buffer, were injected by the use of a Hamilton syringe connected to the stereotaxic apparatus.
GlaB dissolved in the vehicle constituted by ethanol (Sigma-Aldrich #51976): 2-hydroxypropyl-beta-cyclodextrin (Sigma-Aldrich #C0926) solution (10% (w/v) in H2O) in a 1:5 volume ratio was administered by intraperitoneal injections (ip, 35 mg/kg) and intranasally (in, 4.4 mg/kg), every two days after 7 days from the implantation of tumor cells for a total of 6 days of treatment. Intranasal administration was performed through the so-called “snort delivery”: drops of the medicament were sniffed by the animal, anesthetized with 2.5% Isofluorane, until reaching the upper nasal cavity.
The day after the last administration of GlaB, mice were perfused with phosphate buffer and then 4% PFA and their brain isolated, further fixed and frozen. After about 48 h each frozen brain was cut into subsequent coronal slices, 20 μm thick, collected at 100 μm intervals. The determination of tumor volume was performed by histological staining (hematoxylin and eosin) of the brain slices: the tumor mass is recognizable because it has a darker color compared to the remaining healthy tissue. The tumor volume is calculated through analysis of images obtained under a phase contrast microscope (ECLIPSE Ti-S, Nikon) using commercial software released in the public domain (ImageJ, National Institutes of Health of the United States) able to measure the tumor area in each slice, necessary for volume calculation.

COc1cc(OC)c2c(=O)c(-c3ccc(OCC=C(C)C)c(OCC=C(C)C)c3)coc2c1 [GlaB, Glabrescione B]
growth of GL261 tumor cells (MTT absorbance) compared to vehicle (DMSO) [1]: reduce their growth capacity; also recorded: significant reduction
concentration at 2 h ([2]; C57BL/6, mouse, brain, other: nasal administration (intranasal), 1.44 mg/Kg, mice, two hours post one single nasal administration of GlaB/PEG-Cholane, read-out: estimated brain level concentration): 3600 ng/g
GlaB peak in extract ion chromatogram of brain extract (drug reaches brain) ([2]; intranasally GlaB/PEG-Cholane treated mice vs control PEG-Cholane treated mice): presence of GlaB peak
GlaB quantified in brain extract, amount on column ([2]; mice, two hours post one single nasal administration of GlaB/PEG-Cholane, HPLC-MS SIM m/z 451): 6 ng on column
tumor volume reduction ([3]; intranasal formulation in ethanol:2-hydroxypropyl-beta-cyclodextrin solution (1:5 by volume), 4.4 mg/kg): about 70%
glioma volume in vivo compared to control solution ([3]; intranasal, 4.4 mg/kg): significantly reduce glioma volume
tumor volume ([3]; intranasal, 4.4 mg/kg): 0.21 mm³
glioma volume in vivo compared to control solution ([3]; intraperitoneal, 35 mg/kg): significantly reduce glioma volume
tumor volume ([3]; intraperitoneal, 35 mg/kg): 0.48 mm³

From US20210030714A1, “COMPOUNDS FOR USE IN THE TREATMENT OF BRAIN DISEASES” (UNIVERSITA DEGLI STUDI DI ROMA "LA SAPIENZA", priority 2018, published 2021)
